23 compounds from patent US10570129B2 (Zoetis Services LLC, priority 2015, dated 2020) can be followed below.

The subject of one test is D. immitis microfilariae. Put plainly: Dirofilaria immitis, microfilariae (DiMF) in vitro motility assay. The class given is cell-based. As to conditions: Dirofilaria immitis, 72 h, read-out: DiMF minimally effective dose (MEC).
Another test has as its system Haemonchus contortus L3. Briefly: microbe, parasite or virus in culture. The class given is cell-based. As to conditions: Haemonchus contortus, 96 h, read-out: HcL3 Minimal Effective Concentration (MEC).

Turning to `COc1cc2c3c(n(C(=O)NCc4ccnc(Cl)c4)c2cc1C(F)(F)F)CCN(C/C=C/c1ccc(Cl)cc1)C3` [Example 329, (E)-2-(3-(4-chlorophenyl)allyl)-N-((2-chloropyridin-4-yl)methyl)-8-methoxy-7-(trifluoromethyl)-1,2,3,4-tetrahydro-5H-pyrido[4,3-b]indole-5-carboxamide], the values for the minimal effective concentration in the test with D. immitis microfilariae and in the test on Haemonchus contortus L3 were 1.8 µM and 0.3 µM, respectively.

`N#Cc1ccc2c(c1)c1c(n2C(=O)NCc2ccnc(Cl)c2)CCN(C/C=C/c2c(F)cc(Cl)cc2F)C1` [Example 74, (E)-2-(3-(4-chloro-2,6-difluorophenyl)allyl)-N-((2-chloropyridin-4-yl)methyl)-8-cyano-1,2,3,4-tetrahydro-5H-pyrido[4,3-b]indole-5-carboxamide]: the values for the minimal effective concentration in the test with D. immitis microfilariae and in the test on Haemonchus contortus L3 were greater than 100 µM and 0.2 µM, respectively.

In the case of `O=C(NCc1ccnc(Cl)c1)n1c2c(c3ccc(Br)cc31)CN(C/C=C/c1ccc(Cl)cc1)CC2` [Example 443, (E)-7-bromo-2-(3-(4-chlorophenyl)allyl)-N-((2-chloropyridin-4-yl)methyl)-1,2,3,4-tetrahydro-5H-pyrido[4,3-b]indole-5-carboxamide], the minimal effective concentration in the test on D. immitis microfilariae is 3.3 µM; in the test with Haemonchus contortus L3, 0.5 µM.

`O=C(NCc1ccnc(Cl)c1)n1c2c(c3ccc(OC(F)(F)F)cc31)CN(C/C=C/c1ccc(Cl)c(Cl)c1)CC2` [Example 355, (E)-N-((2-chloropyridin-4-yl)methyl)-2-(3-(3,4-dichlorophenyl)allyl)-7-(trifluoromethoxy)-1,2,3,4-tetrahydro-5H-pyrido[4,3-b]indole-5-carboxamide]: the minimal effective concentration with D. immitis microfilariae is 69.1 µM; with Haemonchus contortus L3, 1 µM.

As for `N#Cc1ccc2c3c(n(C(=O)NCc4ccnc(Cl)c4)c2c1)CCN(C/C=C/c1ccc(F)c(Cl)c1)C3` [Example 27, (E)-2-(3-(3-chloro-4-fluorophenyl)allyl)-N-((2-chloropyridin-4-yl)methyl)-7-cyano-1,2,3,4-tetrahydro-5H-pyrido[4,3-b]indole-5-carboxamide], the minimal effective concentration in the test with D. immitis microfilariae and in the test on Haemonchus contortus L3 was 1.8 µM in each case.

For the compound `N#Cc1ccc(/C=C/CN2CCc3c(c4cc(F)c(Cl)cc4n3C(=O)NCc3ccnc(Cl)c3)C2)cc1F` [Example 298, (E)-7-chloro-N-((2-chloropyridin-4-yl)methyl)-2-(3-(4-cyano-3-fluoro-phenyl)allyl)-8-fluoro-1,2,3,4-tetrahydro-5H-pyrido[4,3-b]indole-5-carboxamide], the results for the minimal effective concentration in the test with D. immitis microfilariae and in the test with Haemonchus contortus L3 were greater than 100 µM and 1.8 µM, respectively.

As to `COc1ccc(/C=C/CN2CCc3c(c4cc(OC(F)(F)F)ccc4n3C(=O)NCc3ccnc(Cl)c3)C2)cc1` [Example 394, (E)-N-((2-chloropyridin-4-yl)methyl)-2-(3-(4-methoxyphenyl)allyl)-8-(trifluoromethoxy)-1,2,3,4-tetrahydro-5H-pyrido[4,3-b]indole-5-carboxamide], the minimal effective concentration in the test on D. immitis microfilariae was 6.9 µM; with Haemonchus contortus L3, 1 µM.

In the case of `N#Cc1ccc2c3c(n(C(=O)NCc4ccnc(F)c4)c2c1)CCN(C/C=C/c1ccc(Cl)c(F)c1)C3` [Example 51, (E)-2-(3-(4-chloro-3-fluorophenyl)allyl)-7-cyano-N-((2-fluoropyridin-4-yl)methyl)-1,2,3,4-tetrahydro-5H-pyrido[4,3-b]indole-5-carboxamide], the minimal effective concentration in the test with D. immitis microfilariae turned out to be 5.7 µM; with Haemonchus contortus L3, 3.3 µM.

For `N#Cc1ccc2c(c1)c1c(n2C(=O)NCc2ccnc(Cl)c2)CCN(C/C=C/c2ccc(Cl)cc2F)C1` [Example 75, (E)-2-(3-(4-chloro-2-fluorophenyl)allyl)-N-((2-chloropyridin-4-yl)methyl)-8-cyano-1,2,3,4-tetrahydro-5H-pyrido[4,3-b]indole-5-carboxamide], the minimal effective concentration is 10.2 µM in the test with D. immitis microfilariae and 0.1 µM with Haemonchus contortus L3.

For the compound `O=C(NCc1ccnc(Cl)c1)n1c2c(c3c4c(ccc31)COC4)CN(C/C=C/c1ccc(Cl)cc1)CC2` [Example 490, (E)-9-(3-(4-chlorophenyl)allyl)-N-((2-chloropyridin-4-yl)methyl)-1,3,7,8,9,10-hexahydro-6H-furo[3,4-e]pyrido[4,3-b]indole-6-carboxamide], the minimal effective concentration with D. immitis microfilariae was 10 µM; with Haemonchus contortus L3, 0.2 µM.

As to `N#Cc1ccc(/C=C/CN2CCc3c(c4cc(OC(F)(F)F)ccc4n3C(=O)NCc3ccnc(Cl)c3)C2)cc1F` [Example 386, (E)-N-((2-chloropyridin-4-yl)methyl)-2-(3-(4-cyano-3-fluorophenyl)allyl)-8-(trifluoromethoxy)-1,2,3,4-tetrahydro-5H-pyrido[4,3-b]indole-5-carboxamide], the minimal effective concentration stood at 3.3 µM with D. immitis microfilariae and 0.2 µM in the test with Haemonchus contortus L3.

In the case of `O=C(NCc1ccnc(Cl)c1)n1c2c(c3cc(C(F)(F)F)ccc31)CN(C/C=C/c1ccc(Cl)c(F)c1)CC2` [Example 410, (E)-2-(3-(4-chloro-3-fluorophenyl)allyl)-N-((2-chloropyridin-4-yl)methyl)-8-(trifluoromethyl)-1,2,3,4-tetrahydro-5H-pyrido[4,3-b]indole-5-carboxamide], the minimal effective concentration stood at 10 µM with D. immitis microfilariae and 1.8 µM in the test on Haemonchus contortus L3.

Regarding `O=C(NCc1ccnc(Cl)c1)n1c2c(c3cc(Cl)ccc31)CN(Cc1ccc3cc(Cl)ccc3n1)CC2` [Example 247, 8-chloro-N-((2-chloropyridin-4-yl)methyl)-2-((6-chloroquinolin-2-yl)methyl)-1,2,3,4-tetrahydro-5H-pyrido[4,3-b]indole-5-carboxamide], the minimal effective concentration in the test on D. immitis microfilariae was 1.8 µM; in the test with Haemonchus contortus L3 it was 1 µM.

As to `N#Cc1ccc2c(c1)c1c(n2C(=O)NCc2ccnc(F)c2)CCN(C/C=C/c2ccc(Br)c(F)c2F)C1` [Example 111, (E)-2-(3-(4-bromo-2,3-difluorophenyl)allyl)-8-cyano-N-((2-fluoropyridin-4-yl)methyl)-1,2,3,4-tetrahydro-5H-pyrido[4,3-b]indole-5-carboxamide], the minimal effective concentration in the test with D. immitis microfilariae was greater than 100 µM; in the test on Haemonchus contortus L3 it was 0.3 µM.

As for `O=C(NCc1ccnc(F)c1)n1c2c(c3cc(C(F)(F)F)ccc31)CN(C/C=C/c1ccc(Cl)c(F)c1)CC2` [Example 415, (E)-2-(3-(4-chloro-3-fluorophenyl)allyl)-N-((2-fluoropyridin-4-yl)methyl)-8-(trifluoromethyl)-1,2,3,4-tetrahydro-5H-pyrido[4,3-b]indole-5-carboxamide], the minimal effective concentration in the test with D. immitis microfilariae came to 12.4 µM; in the test with Haemonchus contortus L3 it was 2.7 µM.

As to `NC(=O)c1ccc2c3c(n(C(=O)NCc4ccnc(Cl)c4)c2c1)CCN(C/C=C/c1ccc(F)cc1)C3` [Example 466, (E)-N^5-((2-chloropyridin-4-yl)methyl)-2-(3-(4-fluorophenyl)allyl)-1,2,3,4-tetrahydro-5H-pyrido[4,3-b]indole-5,7-dicarboxamide], the minimal effective concentration with D. immitis microfilariae is 3.3 µM; in the test on Haemonchus contortus L3 it was greater than 100 µM.

Regarding `CSc1ccc2c(c1)c1c(n2C(=O)NCc2ccnc(Cl)c2)CCN(C/C=C/c2ccc(Cl)c(F)c2)C1` [Example 445, (E)-2-(3-(4-chloro-3-fluorophenyl)allyl)-N-((2-chloropyridin-4-yl)methyl)-8-(methylthio)-1,2,3,4-tetrahydro-5H-pyrido[4,3-b]indole-5-carboxamide], the minimal effective concentration in the test on D. immitis microfilariae was 33 µM; in the test on Haemonchus contortus L3 it was 0.5 µM.

Regarding `N#Cc1ccc(/C=C/CN2CCc3c(c4cc(OC(F)(F)F)ccc4n3C(=O)NCc3ccnc(F)c3)C2)cc1F` [Example 402, (E)-2-(3-(4-cyano-3-fluorophenyl)allyl)-N-((2-fluoropyridin-4-yl)methyl)-8-(trifluoromethoxy)-1,2,3,4-tetrahydro-5H-pyrido[4,3-b]indole-5-carboxamide], the minimal effective concentration in the test with D. immitis microfilariae was determined as 5.7 µM; in the test on Haemonchus contortus L3 it was 0.3 µM.

Regarding `N#Cc1ccc(/C=C/CN2CCc3c(c4ccc(Br)cc4n3C(=O)NCc3ccnc(Cl)c3)C2)cc1` [Example 441, (E)-7-bromo-N-((2-chloropyridin-4-yl)methyl)-2-(3-(4-cyanophenyl)allyl)-1,2,3,4-tetrahydro-5H-pyrido[4,3-b]indole-5-carboxamide], the minimal effective concentration in the test with D. immitis microfilariae is 4.4 µM; in the test on Haemonchus contortus L3, greater than 100 µM.

Take `O=C(NCc1ccnc(F)c1)n1c2c(c3c(C(F)(F)F)cc(F)cc31)CN(C/C=C/c1ccc(Cl)cc1)CC2` [Example 326, (E)-2-(3-(4-chlorophenyl)allyl)-7-fluoro-N-((2-fluoropyridin-4-yl)methyl)-9-(trifluoromethyl)-1,2,3,4-tetrahydro-5H-pyrido[4,3-b]indole-5-carboxamide]: the values for the minimal effective concentration in the test on D. immitis microfilariae and in the test with Haemonchus contortus L3 were 10 µM and 7.6 µM, respectively.

For the compound `N#Cc1ccc(/C=C/CN2CCc3c(c4cc(F)c(Cl)cc4n3C(=O)NCc3ccnc(F)c3)C2)cc1F` [Example 311, (E)-7-chloro-2-(3-(4-cyano-3-fluorophenyl)allyl)-8-fluoro-N-((2-fluoro-pyridin-4-yl)methyl)-1,2,3,4-tetrahydro-5H-pyrido[4,3-b]indole-5-carboxamide], the minimal effective concentration with D. immitis microfilariae is 5.7 µM; in the test with Haemonchus contortus L3 it was 0.5 µM.

In the case of `O=C(NCc1ccnc(F)c1)n1c2c(c3cc(C4CC4)ccc31)CN(C/C=C/c1ccc(Cl)cc1)CC2` [Example 501, (E)-2-(3-(4-chlorophenyl)allyl)-8-cyclopropyl-N-((2-fluoropyridin-4-yl)methyl)-1,2,3,4-tetrahydro-5H-pyrido[4,3-b]indole-5-carboxamide], the minimal effective concentration in the test with D. immitis microfilariae was 18.2 µM; in the test on Haemonchus contortus L3, 3.3 µM.

As to `N#Cc1ccc2c(c1)c1c(n2C(=O)NCc2ccnc(F)c2)CCN(C/C=C/c2ccc(F)c(F)c2F)C1` [Example 110, (E)-8-cyano-N-((2-fluoropyridin-4-yl)methyl)-2-(3-(2,3,4-trifluorophenyl)allyl)-1,2,3,4-tetrahydro-5H-pyrido[4,3-b]indole-5-carboxamide], the minimal effective concentration is greater than 100 µM with D. immitis microfilariae and 0.3 µM in the test on Haemonchus contortus L3.
